Values quoted from earlier work, collected in patent US20070166273A1, “Skin treatment educational kit” (priority 2006, published 2007).

Assays:
[1] = tested on: CD-1 mice; conditions: 91-week dermal
[2] = tested on: mice; conditions: 0.025 mg/kg/day topically to mice (0.1 times max human systemic dose)
[3] = tested on: hairless albino mice; conditions: concurrent exposure
[4] = tested on: pigmented mice; conditions: 0.05% tretinoin
[5] = Ames assay
[6] = tested on: mouse; conditions: in vivo mouse micronucleus assay
[7] = tested on: rats; conditions: dermal
[8] = tested on: rats; conditions: oral, rats (16 times the human topical dose)
[9] = tested on: rats; conditions: oral
[10] = tested on: mice; conditions: oral
[11] = tested on: hamsters; conditions: oral
[12] = tested on: subhuman primates; conditions: oral
[13] = tested on: Wistar rats; conditions: orally or topically, Wistar rats (8 times max human systemic dose)
[14] = tested on: Wistar rats
[15] = tested on: New Zealand White rabbits; conditions: New Zealand White rabbits (3.3 times max human systemic dose)
[16] = dermally applied, 1.0 mg/kg/day (8 times max human systemic dose)
[17] = tested on: rabbits; conditions: 0.5 mg/kg/day (8 times max human systemic dose)
[18] = tested on: rats; conditions: oral, 2.5 mg/kg/day (20 times max human systemic dose)
[19] = tested on: human
[20] = tested on: cynomolgus monkey

In the case of `CC1=C(/C=C/C(C)=C/C=C/C(C)=C/C(=O)O)C(C)(C)CCC1` [tretinoin, all-trans-retinoic acid], the “cutaneous squamous cell carcinomas and papillomas in the treatment area” value ([1]; 0.017% and 0.035% formulations (max systemic 0.5 and 1.0 mg/kg/day), female CD-1 mice) is given as “observed in some female mice”, the liver tumors ([1]; 0.017% and 0.035% formulations, male CD-1 mice) is given as “dose-related incidence” and the carcinogenic potential [2] is given as “no evidence of carcinogenic potential”. For the same compound, the “tumorigenic potential of carcinogenic doses of UVB and UVA light” value [3] was “may enhance the tumorigenic potential”, the enhancement of photocarcinogenesis [4] was “dark pigmentation did not overcome the enhancement of photocarcinogenesis” and the mutagenic potential [5] was “negative”. For the same compound, the mutagenic potential [6] was “negative”, the “sperm count and motility” value ([7]; 0.5 mg/kg/day, rats (4 times max human systemic dose)) was “slight (not statistically significant) decreases” and the “number and percent of nonviable embryos” value ([7]; females treated with 0.25 mg/kg/day and above (2 times max human systemic dose)) was “slight (not statistically significant) increases”. The “dose with decreased survival of neonates and growth retardation” value [8] was > 2 mg/kg/day, the teratogenicity [9] was “teratogenic” and the teratogenicity [10] was “teratogenic”. The teratogenicity [11] was “teratogenic”, the teratogenicity [12] was “teratogenic” and the “teratogenic and fetotoxic dose” value [13] was “greater than 1 mg/kg/day”. The “anomalies: humerus bent” value ([14]; 10 mg/kg/day topically applied) was 6%, the “anomalies: humerus short” value ([14]; 10 mg/kg/day topically applied) was 13% and the “anomalies: os parietal incompletely ossified” value ([14]; 10 mg/kg/day topically applied) was 14%. For the same compound, the “dose with evidence for teratogenicity (shortened or kinked tail)” value ([14]; topical, Wistar rats (8 times max human systemic dose)) was “greater than 1 mg/kg/day”, the “dose with increased incidence of domed head and hydrocephaly” value [15] was “greater than 0.2 mg/kg/day” and the fetotoxicity and teratogenicity [16] was “may be fetotoxic, but not overly teratogenic”. For the same compound, the fetotoxicity and teratogenicity ([17]; dermally applied) was “may be fetotoxic, but not overly teratogenic”, the fetotoxicity ([17]; topical) was “fetotoxic” and the fetotoxicity [18] was “fetotoxic, resulting in skeletal variations and increased intrauterine death”. The reports describing holoprosencephaly ([19]; of the thirty human cases) was “five”, the “human cases of temporally associated congenital malformations” value ([19]; two decades of clinical use) was “Thirty” and the “dose with fetal malformations” value ([20]; cynomolgus monkey) was ≥ 10 mg/kg/day. For the same compound, the embryolethality and abortion ([20]; cynomolgus monkey) was “dose-related increase”, the “dose at which no fetal malformations were observed” value ([20]; cynomolgus monkey (83 times max human systemic dose)) was 5 mg/kg/day and the skeletal variations ([20]; cynomolgus monkey, all doses) was “increased skeletal variations were observed at all doses”.
